Assay: DPPH radical scavenging antioxidant test
Format: biochemical
Conditions: 517 nm; for Inhibition (radical scavenging inhibition): compound 3 μM in ethanol, 0.2 mL DPPH (0.75 mM), 30 min incubation in the dark
Description: The antioxidant properties of the 8-(3-bromobenzylideneamino)naphthalene-1,3-disulfonic acid were studied by adding 0.2 mL DPPH (0.75 mM)) to compound 8-(3-bromobenzylideneamino)naphthalene-1,3-disulfonic acid (III) (3 μM) in ethanol. After 30 min of incubation in the dark, the absorbance was read against a blank at 517 nm. Ascorbic acid (vitamin C) was used as standard antioxidants (positive control). A blank sample was prepared by 0.2 ml of DPPH in 3 ml ethanol. A negative control sample was run using ethanol instead of the sample. The radical scavenging inhibition was calculated using the following equation: […]

Compound | antioxidant potential in DPPH test compared to vitamin C (in words) (DPPH in vitro test, vitamin C as positive control) | Inhibition (radical scavenging inhibition)
O=S(=O)(O)c1cc(S(=O)(=O)O)c2c(/N=C/c3cccc(Br)c3)cccc2c1 [Product III, 8-(3-bromobenzylideneamino)naphthalene-1,3-disulfonic acid] | high potential as an antioxidant compared to vitamin C | 50%
O=C1O[C@H]([C@@H](O)CO)C(O)=C1O [vit c, Ascorbic acid, reference compound] |  | 74%
